Laboratory results taken from patent US9493455B2, “Azaindole derivatives as inhibitors of protein kinases” (ORIBASE PHARMA, priority 2012, dated 2016).

Legend:
A549 = experiment: In vitro cell proliferation assay (MTT); assay type: cell-based; details: Homo sapiens, A549, 72 h
Experimental: (§1) Cancer cell lines (5×10^3 cells per well) or HUVEC (1×10^4 cells per well) or HRMEC (1×10^4 cells per well) were distributed in 96-well plates and incubating in duplicate with escalating concentrations (10 nM to 3 μM) of compounds for 72 hr. Cell proliferation was measured using MTT (3 [4,5-dimethylthiazol-2-yl]-2,5-diphenyltetrazolium bromide).

H1975 = experiment: In vitro cell proliferation assay (MTT); assay type: cell-based; details: Homo sapiens, NCI-H1975, 72 h
Experimental: as §1

BxPC-3 = experiment: In vitro cell proliferation assay (MTT); assay type: cell-based; details: Homo sapiens, BXPC-3, 72 h
Experimental: as §1

HUVEC = experiment: In vitro cell proliferation assay (MTT); assay type: cell-based; details: Homo sapiens, 72 h
Experimental: as §1

HT29 = experiment: In vitro cell proliferation assay (MTT); assay type: cell-based; details: Homo sapiens, HT-29, 72 h
Experimental: as §1

HepG2 = experiment: In vitro cell proliferation assay (MTT); assay type: cell-based; details: Homo sapiens, HepG2, 72 h
Experimental: as §1

ABL = target: T1, ABL (Homo sapiens, UniProt P00519); experiment: In vitro kinase assay (Z′-LYTE); assay type: biochemical; details: read-out: % of inhibition of the kinase compared to the control
T1 construct: purchased Invitrogen
Experimental: (§2) The inhibitory activity of the compounds on several kinases including BRAF, EGFR (ErbB1), EGFR (ErbB1) T790M L858R, FGFR2, KDR (VEGFR2), PDGFRA (PDGFR alpha), SRC and other was evaluated by Invitrogen using the Z′-LYTE® technology. Briefly, the Z′-LYTE® biochemical assay employs a fluorescence-based, coupled-enzyme format and is based on the differential sensitivity of phosphorylated and non-phosphorylated peptides to proteolytic cleavage. The peptide substrate is labeled with two fluorophores—one at each end—that make up a FRET pair. A ratiometric method, which calculates the ratio (the Emission Ratio) of donor emission to acceptor emission after excitation of the donor fluorophore at 400 nm, is used to quantitate reaction progress.
(§3) The compounds are screened in 1% DMSO (final) in the well. For 10 point titrations, 3-fold serial dilutions are conducted from the starting concentration. All Peptide/Kinase Mixtures are diluted to a 2× working concentration in the appropriate Kinase Buffer. All ATP Solutions are diluted to a 4× working concentration in Kinase Buffer (50 mM HEPES pH 7.5, 0.01% BRIJ-35, 10 mM MgCl2, 1 mM EGTA). ATP Km apparent is previously determined using a Z′-LYTE® assay.
(§4) Each compound was incubated at a concentration of 100 nM (excepted to test the activity against ABL and ABL T315I for which the compounds were incubated at a concentration of 10 μM) and the tables B1 to B12 summarize the results obtained showing the inhibitory power of a compound. The inhibitory activity of OR0512 was also investigated using the same assays and the kinases for which activity was inhibited at more than 50% at the concentration of 100 nM of OR0512 are listed in the table B13.

PDGFRB = target: T2, PDGFRB (Homo sapiens, UniProt P09619); experiment: In vitro kinase assay (Z′-LYTE); assay type: biochemical; details: read-out: % of inhibition of the kinase compared to the control
T2 construct: purchased Invitrogen
T2 sequence (P09619 33-1106): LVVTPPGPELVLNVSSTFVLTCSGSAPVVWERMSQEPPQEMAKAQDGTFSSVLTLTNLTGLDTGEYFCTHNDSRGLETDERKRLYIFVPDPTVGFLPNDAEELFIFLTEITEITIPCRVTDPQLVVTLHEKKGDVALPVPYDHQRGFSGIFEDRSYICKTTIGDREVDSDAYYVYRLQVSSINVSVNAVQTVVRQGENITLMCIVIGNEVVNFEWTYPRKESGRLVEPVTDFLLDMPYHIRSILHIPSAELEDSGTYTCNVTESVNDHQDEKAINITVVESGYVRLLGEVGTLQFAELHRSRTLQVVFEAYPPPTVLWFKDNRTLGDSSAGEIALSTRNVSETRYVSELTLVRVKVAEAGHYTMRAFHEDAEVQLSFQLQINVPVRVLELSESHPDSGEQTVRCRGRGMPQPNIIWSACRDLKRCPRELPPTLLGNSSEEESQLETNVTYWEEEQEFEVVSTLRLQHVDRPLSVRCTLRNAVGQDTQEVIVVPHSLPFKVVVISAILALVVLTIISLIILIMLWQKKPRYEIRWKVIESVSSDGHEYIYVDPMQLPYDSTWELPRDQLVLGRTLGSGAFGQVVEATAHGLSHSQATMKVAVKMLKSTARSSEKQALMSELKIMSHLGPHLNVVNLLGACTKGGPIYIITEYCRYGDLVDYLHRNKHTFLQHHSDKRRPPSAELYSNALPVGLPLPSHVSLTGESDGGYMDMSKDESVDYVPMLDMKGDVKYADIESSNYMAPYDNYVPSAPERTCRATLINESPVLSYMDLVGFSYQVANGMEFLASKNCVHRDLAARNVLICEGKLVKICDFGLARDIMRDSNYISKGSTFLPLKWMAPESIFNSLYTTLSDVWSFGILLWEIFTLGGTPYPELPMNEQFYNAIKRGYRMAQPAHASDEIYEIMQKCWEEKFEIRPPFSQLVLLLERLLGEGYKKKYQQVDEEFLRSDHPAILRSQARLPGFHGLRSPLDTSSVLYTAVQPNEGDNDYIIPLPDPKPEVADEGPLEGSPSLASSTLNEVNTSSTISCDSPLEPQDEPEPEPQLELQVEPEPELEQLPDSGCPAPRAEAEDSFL
Experimental: as §2, §3, §4

SRC = target: T3, SRC (Homo sapiens, UniProt P12931); experiment: In vitro kinase assay (Z′-LYTE); assay type: biochemical; details: read-out: % of inhibition of the kinase compared to the control
T3 construct: purchased Invitrogen
T3 sequence (P12931 whole entry): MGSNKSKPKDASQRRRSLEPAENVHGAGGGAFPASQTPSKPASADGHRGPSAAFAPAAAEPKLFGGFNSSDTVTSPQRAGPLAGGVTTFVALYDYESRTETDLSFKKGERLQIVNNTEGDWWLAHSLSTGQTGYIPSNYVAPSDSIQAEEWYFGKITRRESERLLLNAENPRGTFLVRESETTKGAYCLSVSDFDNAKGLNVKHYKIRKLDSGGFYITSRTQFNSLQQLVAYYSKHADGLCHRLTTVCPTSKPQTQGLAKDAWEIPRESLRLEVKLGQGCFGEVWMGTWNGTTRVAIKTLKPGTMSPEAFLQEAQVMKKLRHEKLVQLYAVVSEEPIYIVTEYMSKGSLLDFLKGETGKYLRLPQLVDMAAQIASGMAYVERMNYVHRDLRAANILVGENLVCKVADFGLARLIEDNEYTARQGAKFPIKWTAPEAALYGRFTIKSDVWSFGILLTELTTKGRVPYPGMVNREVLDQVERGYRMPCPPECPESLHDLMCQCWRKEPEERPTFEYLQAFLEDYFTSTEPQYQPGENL
Experimental: as §2, §3, §4

KDR (VEGFR2) = target: T4, KDR (VEGFR2) (Homo sapiens, UniProt P35968); experiment: In vitro kinase assay (Z′-LYTE); assay type: biochemical; details: read-out: % of inhibition of the kinase compared to the control
T4 construct: purchased Invitrogen
T4 sequence (P35968 20-1356): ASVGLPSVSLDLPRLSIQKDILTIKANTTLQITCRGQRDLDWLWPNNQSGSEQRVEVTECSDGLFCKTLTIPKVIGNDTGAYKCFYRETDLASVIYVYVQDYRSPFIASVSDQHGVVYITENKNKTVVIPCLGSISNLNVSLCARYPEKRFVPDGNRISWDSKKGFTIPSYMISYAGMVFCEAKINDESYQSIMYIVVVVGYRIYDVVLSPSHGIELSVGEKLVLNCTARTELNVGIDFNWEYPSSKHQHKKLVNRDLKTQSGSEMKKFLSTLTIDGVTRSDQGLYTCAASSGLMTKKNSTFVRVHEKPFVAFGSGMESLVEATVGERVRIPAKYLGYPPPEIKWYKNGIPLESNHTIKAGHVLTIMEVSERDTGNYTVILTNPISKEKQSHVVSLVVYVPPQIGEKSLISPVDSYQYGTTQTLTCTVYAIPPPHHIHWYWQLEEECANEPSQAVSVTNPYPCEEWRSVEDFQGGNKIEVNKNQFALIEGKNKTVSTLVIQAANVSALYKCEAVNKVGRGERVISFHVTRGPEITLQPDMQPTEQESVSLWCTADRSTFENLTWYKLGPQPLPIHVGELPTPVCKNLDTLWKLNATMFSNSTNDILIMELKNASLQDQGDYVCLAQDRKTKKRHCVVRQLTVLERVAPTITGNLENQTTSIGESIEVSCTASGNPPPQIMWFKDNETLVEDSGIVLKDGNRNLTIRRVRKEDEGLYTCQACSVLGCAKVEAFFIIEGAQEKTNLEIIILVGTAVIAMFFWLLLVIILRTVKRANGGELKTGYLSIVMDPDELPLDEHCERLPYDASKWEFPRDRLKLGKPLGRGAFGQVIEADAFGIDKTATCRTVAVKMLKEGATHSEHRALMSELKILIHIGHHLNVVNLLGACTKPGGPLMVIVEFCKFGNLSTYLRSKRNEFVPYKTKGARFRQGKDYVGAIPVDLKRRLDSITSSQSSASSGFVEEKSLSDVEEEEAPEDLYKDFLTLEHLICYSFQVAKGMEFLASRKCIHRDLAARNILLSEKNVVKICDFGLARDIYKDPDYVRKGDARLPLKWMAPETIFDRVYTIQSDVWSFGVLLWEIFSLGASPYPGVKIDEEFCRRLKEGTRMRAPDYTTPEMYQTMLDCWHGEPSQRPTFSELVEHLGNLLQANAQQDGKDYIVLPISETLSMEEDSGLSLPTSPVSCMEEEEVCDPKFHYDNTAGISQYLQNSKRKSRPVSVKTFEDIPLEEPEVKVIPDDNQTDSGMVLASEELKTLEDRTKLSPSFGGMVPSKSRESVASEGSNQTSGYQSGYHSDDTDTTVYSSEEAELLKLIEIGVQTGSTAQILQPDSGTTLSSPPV
Experimental: as §2, §3, §4

FGFR1 = target: T5, FGFR1 (Homo sapiens, UniProt P11362); experiment: In vitro kinase assay (Z′-LYTE); assay type: biochemical; details: read-out: % of inhibition of the kinase compared to the control
T5 construct: purchased Invitrogen
Experimental: as §2, §3, §4

BRAF = target: T6, BRAF (Homo sapiens, UniProt P15056); experiment: In vitro kinase assay (Z′-LYTE); assay type: biochemical; details: compound 100 nM; ATP 100 μM; read-out: % of inhibition of the kinase compared to the control
T6 construct: purchased Invitrogen
Experimental: as §2, §3, §4

EGFR (ErbB1) = target: T7, EGFR (ErbB1) (Homo sapiens, UniProt P00533); experiment: In vitro kinase assay (Z′-LYTE); assay type: biochemical; details: read-out: % of inhibition of the kinase compared to the control
T7 construct: purchased Invitrogen
T7 sequence (P00533 25-1210): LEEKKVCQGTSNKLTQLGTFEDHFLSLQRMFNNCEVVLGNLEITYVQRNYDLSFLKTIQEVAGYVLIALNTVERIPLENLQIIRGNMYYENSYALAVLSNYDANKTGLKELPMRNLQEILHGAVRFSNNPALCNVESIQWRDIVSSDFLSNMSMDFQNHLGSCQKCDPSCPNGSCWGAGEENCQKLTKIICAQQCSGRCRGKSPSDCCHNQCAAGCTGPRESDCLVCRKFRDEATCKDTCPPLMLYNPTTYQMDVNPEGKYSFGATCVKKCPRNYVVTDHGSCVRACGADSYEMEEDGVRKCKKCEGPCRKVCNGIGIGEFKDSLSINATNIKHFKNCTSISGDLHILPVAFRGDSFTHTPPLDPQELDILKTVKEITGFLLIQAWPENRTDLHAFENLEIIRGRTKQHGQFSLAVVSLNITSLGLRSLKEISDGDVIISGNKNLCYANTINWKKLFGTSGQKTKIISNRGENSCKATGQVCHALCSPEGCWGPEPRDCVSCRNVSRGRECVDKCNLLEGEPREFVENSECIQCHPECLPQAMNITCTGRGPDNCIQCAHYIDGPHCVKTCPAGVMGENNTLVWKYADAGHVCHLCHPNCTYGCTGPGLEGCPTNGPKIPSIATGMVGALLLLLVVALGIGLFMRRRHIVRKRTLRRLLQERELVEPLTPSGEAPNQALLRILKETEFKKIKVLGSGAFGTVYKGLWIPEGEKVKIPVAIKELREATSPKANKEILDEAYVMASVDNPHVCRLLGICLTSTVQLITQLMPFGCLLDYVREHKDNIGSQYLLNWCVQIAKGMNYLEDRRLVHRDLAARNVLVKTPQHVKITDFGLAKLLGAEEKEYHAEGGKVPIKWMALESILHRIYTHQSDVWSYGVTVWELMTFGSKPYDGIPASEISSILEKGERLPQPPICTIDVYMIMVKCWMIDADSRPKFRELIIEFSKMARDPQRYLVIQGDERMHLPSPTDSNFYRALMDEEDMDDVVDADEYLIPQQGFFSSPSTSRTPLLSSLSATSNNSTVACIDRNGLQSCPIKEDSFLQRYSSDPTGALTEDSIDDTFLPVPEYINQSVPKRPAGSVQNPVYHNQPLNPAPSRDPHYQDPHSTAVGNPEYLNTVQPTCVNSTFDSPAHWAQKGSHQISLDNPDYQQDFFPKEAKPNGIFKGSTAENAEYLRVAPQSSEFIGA
Experimental: as §2, §3, §4

FGFR2 = target: T8, FGFR2 (Homo sapiens, UniProt P21802); experiment: In vitro kinase assay (Z′-LYTE); assay type: biochemical; details: read-out: % of inhibition of the kinase compared to the control
T8 construct: purchased Invitrogen
T8 sequence (P21802 22-821): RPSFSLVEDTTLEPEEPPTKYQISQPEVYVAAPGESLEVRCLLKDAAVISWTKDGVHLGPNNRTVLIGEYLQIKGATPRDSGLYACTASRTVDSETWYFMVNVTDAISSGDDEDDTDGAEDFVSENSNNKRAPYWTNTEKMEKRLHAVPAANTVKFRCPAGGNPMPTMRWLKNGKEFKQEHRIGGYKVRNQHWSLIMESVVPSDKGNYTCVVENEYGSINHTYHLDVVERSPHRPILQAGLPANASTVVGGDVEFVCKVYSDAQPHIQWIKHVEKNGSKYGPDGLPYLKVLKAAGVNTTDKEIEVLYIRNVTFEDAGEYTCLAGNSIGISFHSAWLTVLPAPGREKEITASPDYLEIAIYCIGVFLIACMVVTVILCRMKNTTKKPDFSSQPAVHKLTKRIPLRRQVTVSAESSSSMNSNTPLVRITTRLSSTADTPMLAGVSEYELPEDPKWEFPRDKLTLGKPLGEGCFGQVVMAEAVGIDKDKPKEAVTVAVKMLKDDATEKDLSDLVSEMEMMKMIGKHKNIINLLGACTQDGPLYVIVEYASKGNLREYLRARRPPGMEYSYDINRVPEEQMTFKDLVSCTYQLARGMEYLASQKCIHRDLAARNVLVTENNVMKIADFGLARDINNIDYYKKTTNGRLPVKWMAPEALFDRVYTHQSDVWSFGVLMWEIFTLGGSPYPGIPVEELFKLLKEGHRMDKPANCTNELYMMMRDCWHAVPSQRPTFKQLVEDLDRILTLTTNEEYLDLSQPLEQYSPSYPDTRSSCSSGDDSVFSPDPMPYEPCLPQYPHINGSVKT
Experimental: as §2, §3, §4

VEGFR1 = target: T9, VEGFR1 (Homo sapiens, UniProt P17948); experiment: In vitro kinase assay (Z′-LYTE); assay type: biochemical; details: read-out: % of inhibition of the kinase compared to the control
T9 construct: purchased Invitrogen
Experimental: as §2, §3, §4

EGFR (ErbB1) T790M L858R = target: T10, EGFR (ErbB1) T790M L858R (Homo sapiens, UniProt P00533, L858R/T790M); experiment: In vitro kinase assay (Z′-LYTE); assay type: biochemical; details: read-out: % of inhibition of the kinase compared to the control
T10 construct: purchased Invitrogen
Experimental: as §2, §3, §4

PDGFRA (PDGFR alpha) = target: T11, PDGFRA (PDGFR alpha) (Homo sapiens, UniProt P16234); experiment: In vitro kinase assay (Z′-LYTE); assay type: biochemical; details: read-out: % of inhibition of the kinase compared to the control
T11 construct: purchased Invitrogen
Experimental: as §2, §3, §4

ABL T315I = target: T12, ABL T315I (Homo sapiens, UniProt P00519, T315I); experiment: In vitro kinase assay (Z′-LYTE); assay type: biochemical; details: read-out: % of inhibition of the kinase compared to the control
T12 construct: purchased Invitrogen
Experimental: as §2, §3, §4

HuH7 = experiment: In vitro cell proliferation assay (MTT); assay type: cell-based; details: Homo sapiens, Huh-7, 72 h
Experimental: as §1

EC50 (A549) [µM] | EC50 (H1975) [µM] | EC50 (BxPC-3) [µM] | EC50 (HT29) [µM] | EC50 (HepG2) [µM] | inhibition at 10 µM (ABL) [%] | inhibition at 0.1 µM (PDGFRB) [%] | inhibition at 0.1 µM (SRC) [%] | inhibition at 0.1 µM (KDR (VEGFR2)) [%] | inhibition at 0.1 µM (FGFR1) [%] | inhibition at 0.1 µM (BRAF) [%] | inhibition at 0.1 µM (EGFR (ErbB1)) [%] | inhibition at 0.1 µM (FGFR2) [%] | inhibition at 0.1 µM (VEGFR1) [%] | inhibition at 0.1 µM (EGFR (ErbB1) T790M L858R) [%] | inhibition at 0.1 µM (PDGFRA (PDGFR alpha)) [%] | inhibition at 10 µM (ABL T315I) [%] | EC50 (HuH7) [µM] | Compound | EC50 (HUVEC) [µM]
0.1 to 1 | ≥ 1 | ≥ 1 | 0.1 to 1 | 0.1 to 1 | ≥ 50 | ≥ 50 | ≥ 50 | ≥ 50 | < 50 | ≥ 50 | ≥ 50 | < 50 | < 50 | ≥ 50 | ≥ 50 | ≥ 50 |  | COC(=O)c1cc2cc(NCc3cc(NC(=O)c4ccc(CNCCN5CCN(C)CC5)c(C(F)(F)F)c4)ccc3C)cnc2[nH]1 [OR0637] | 0.1 to 1
0.1 to 1 | ≥ 1 | 0.1 to 1 | 0.1 to 1 | 0.1 to 1 |  |  | ≥ 50 | < 50 |  | < 50 | ≥ 50 | < 50 |  | < 50 | < 50 |  |  | CCCOC(=O)c1cc2cc(NCc3cc(NC(=O)c4ccc(CN5CCN(C)CC5)c(C(F)(F)F)c4)ccc3C)cnc2[nH]1 [OR0697, 5-{2-methyl-5-[4-(4-methyl-piperazin-1-ylmethyl)-3-trifluoromethyl-benzoylamino]-benzylamino}-1H-pyrrolo[2,3-b]pyridine-2-carboxylic acid propyl ester] | 0.1 to 1
 | ≥ 1 | ≥ 1 |  |  |  |  |  |  |  |  |  |  |  |  |  |  |  | C#Cc1cccc(Nc2ncnc3cc(OCCOC)c(OCCOC)cc23)c1 [Erlotinib, reference compound] | ≥ 1
 |  |  |  | 0.1 to 1 |  |  |  | < 50 |  | ≥ 50 | ≥ 50 | < 50 |  |  |  |  | ≥ 1 | COC(=O)c1cc2cc(NCc3cc(NC(=O)c4ccc(C(F)(F)F)nc4)ccc3C)cnc2[nH]1 [OR0865] | 0.1 to 1
0.1 to 1 | ≥ 1 | 0.1 to 1 | ≥ 1 | 0.1 to 1 | ≥ 50 | < 50 | ≥ 50 | ≥ 50 | < 50 | ≥ 50 | < 50 | < 50 | < 50 | < 50 | ≥ 50 | < 50 |  | COC(=O)c1cc2cc(NCc3cc(NC(=O)c4cccc(Br)c4)ccc3C)cnc2[nH]1 [OR0608] | 0.1 to 1
0.1 to 1 | ≥ 1 | 0.1 to 1 | ≥ 1 | 0.1 to 1 | ≥ 50 | < 50 | ≥ 50 | < 50 | < 50 | < 50 | < 50 | < 50 | < 50 | < 50 | ≥ 50 | < 50 |  | COC(=O)c1cc2cc(NCc3cc(NC(=O)C4CCC(C(F)(F)F)CC4)ccc3C)cnc2[nH]1 (stereo not drawn) [OR0612] | 0.1 to 1
≥ 1 | ≥ 1 | ≥ 1 | ≥ 1 | ≥ 1 | ≥ 50 | < 50 | ≥ 50 | ≥ 50 | ≥ 50 | < 50 | < 50 | ≥ 50 | < 50 | < 50 | ≥ 50 | ≥ 50 |  | COC(=O)c1cc2cc(NCc3ccc(C)c(NC(=O)c4ccc(CN5CCN(C)CC5)c(C(F)(F)F)c4)c3)cnc2[nH]1 [OR0622] | 0.1 to 1
0.1 to 1 | 0.1 to 1 | 0.1 to 1 | 0.1 to 1 | 0.1 to 1 | ≥ 50 | < 50 | ≥ 50 | < 50 | < 50 | < 50 | ≥ 50 | < 50 | < 50 | < 50 | ≥ 50 | ≥ 50 |  | COC(=O)c1cc2cc(NCc3cc(NC(=O)c4ccc(CN5CCOCC5)c(C(F)(F)F)c4)ccc3C)cnc2[nH]1 [OR0598] | ≤ 0.1
 |  | ≥ 1 |  |  | ≥ 50 | < 50 | < 50 | < 50 | < 50 | < 50 | < 50 | < 50 | < 50 | < 50 | < 50 | < 50 |  | COC(=O)c1cc2cc(NCc3cc(NS(=O)(=O)c4ccc(C)cc4)ccc3C)cnc2[nH]1 [OR0595] | 
 |  | ≥ 1 |  |  | ≥ 50 | < 50 | < 50 | < 50 | < 50 | < 50 | < 50 | < 50 | < 50 | < 50 | < 50 | < 50 |  | COC(=O)c1cc2cc(NC(=O)c3cc(NC(=S)c4cc(-n5cnc(C)c5)cc(C(F)(F)F)c4)ccc3C)cnc2[nH]1 [OR0643] | 
 |  | ≥ 1 |  |  | ≥ 50 | < 50 | ≥ 50 | < 50 | < 50 | < 50 | ≥ 50 | < 50 | < 50 | < 50 | ≥ 50 | < 50 |  | COC(=O)c1cc2cc(NCc3cc(NC(=O)c4ccc(-c5csc(C)n5)cc4)ccc3C)cnc2[nH]1 [OR0620] | 
0.1 to 1 | ≥ 1 | ≥ 1 | 0.1 to 1 | ≤ 0.1 | ≥ 50 | < 50 | ≥ 50 | < 50 | < 50 | ≥ 50 | < 50 | < 50 | < 50 | < 50 | ≥ 50 | < 50 |  | COC(=O)c1cc2cc(NCc3cc(NC(=O)Cc4cccc(C(F)(F)F)c4)ccc3C)cnc2[nH]1 [OR0601] | ≤ 0.1
 |  | 0.1 to 1 |  |  | ≥ 50 | < 50 | ≥ 50 | < 50 | < 50 | < 50 | < 50 | < 50 | < 50 | < 50 | ≥ 50 | < 50 |  | COC(=O)c1cc2cc(NCc3cc(NC(=O)c4cccc5c4OCC5)ccc3C)cnc2[nH]1 [OR0618] | 
